Test results from patent publication US20090298938A1, “USE OF SEMI SYNTHETIC ANALOGUES OF BOSWELLIC ACIDS FOR ANTICANCER ACTIVITY” (COUNCIL OF SCIENTIFIC & INDUSTRIAL RESEARCH, priority 2008, published 2009).

What was measured:
[1] = system: HL-60 cells; assay: Inhibition of cell proliferation, MTT assay; assay type: cell-based, human; settings: HL-60, 48 hours
Method: FIGS. 1A-1B. FIG. 1A depicts the main triterpenoic acid constituents of the gum exudates from Boswellia serrata, the source of boswellic acids, represented by boswellic acid, acetyl boswellic acid, 11-keto-boswellic acids, acetyl-11-keto-boswellic acid. […] Cell proliferation analysis was performed in HL-60 cells using the MTT method described in the Examples section. Cells were incubated with each formula 1 analog for 48 hours at indicated concentration and thereafter, the mitochondiral competence of MTT reduction as an index of cell viability was determined. The optical density (OD) of the untreated control was taken as 100% viability. […] This analog, as a prototype, was selected for detailed investigations. Where a=compound of formula 1, R3=COCH2CH2CH3, R1=H, R4=R5=H, b=compound of formula 1, R3=COCH2CH3, R1=H, X=H2, c=compound of formula 1, R3=COCH2CH2CH3, R1=H, R4+R5=O, d=compound of formula 1, R1=H, R3=COCH2CH3, R4=R5=H, e=compound of formula 1, R3=COCH2CH2CH3, R1=H, R4=R5=H, f=β-boswellic acid
Human leukemia cells HL-60 were grown in suspension in 96-well culture plate and were incubated with different concentrations of the test analogs for 48 hr. The cells were then incubated with MTT and the MTT-formazon formed is eluted with DMSO, and OD measured in ELISA Reader [Shashi et al., 2006]. The intensity of the color formed in the untreated control wells relates to 100% cell growth. […]

[2] = system: HL-60 cells; assay: Reduced glutathione content, fluorimetric; assay type: cell-based, human; settings: HL-60, 6 hr
Method: FIG. 7. Modulation of reduced glutathione contents in HL-60 cells by boswellic acid analogs. GSH content was measured in HL-60 cells as described in the Examples section, using treated and untreated groups of about 3×10^6 cells per well and 3 mL of RPMI media. Cells were treated with buthionine sulfoxime (BSO), N-acetyl cysteine (NAC), a compound designated “c” (formula 1 compound wherein R3=COCH2CH2CH3, […] and R4+R5=O), and NAC+the compound “c”. Treatment concentrations were as indicated. […] The depleted GSH stores were restored by an anti-oxidant n-acetyl cysteine. Depletion of GSH content is an important indicator of predisposition conditions leading to cellular injury. Loss of mitochondrial functions as a result of GSH depletion may affect the energy status of the cells and therefore, is critical event in the induction of cell injury. GSH in general offers protection by scavenging reactive oxygen species and electrophiles formed within the cells. The GSH content of cells recovered back to normal or NAC control when cells were treated with sulfhydral groups antioxidant, N-acetyl cysteine (NAC). […] Reduced glutathione content was determined in 3×10^6 HL-60 cells/well/3 mL medium in a 6-well plate after incubation with SS-145 for 6 hr. Cells were washed and the reduced glutathione contents were extracted and determined using a standard fluorimetric method [[…] et al., 1976]. […]

[3] = system: caspase-3 in HL-60 cells; assay: Caspase-3 activation, colorimetric, HL-60; assay type: cell-based, human
Method: (§1) FIGS. 8A-8B. Caspase activation in HL-60 cells by boswellic acid analogs. FIG. 8A depicts the results of a colorimetric evaluation of caspase-3 activation in HL-60 cells and Molt-4 cells. Cells were treated with a compound designated “c” (formula 1 compound wherein R3=COCH2CH2CH3, […] and R4+R5=O) at concentrations indicated for 6 hours. Caspase-3 inhibitor (DEVD-fmk) was added 30 min prior to the addition of caspase-3 substrate (DEVD-pNA) to the lysate. Data are mean of triplicate determinations with coefficients of variation less than 10%. […] Caspase-9 inhibitor LEHD-CHO was added 30 min prior to the addition of caspase-9 substrate to validate the specificity of caspase-9. Caspase-9 activity was measured fluorometrically. Data are a mean of triplicate determinations with a coefficient of variation of less than 10%. Caspases are important cysteine-proteases that are involved in the cleavage of DNA specifically producing 180 bp DNA fragments. The enzymes act through different signaling pathways. […] Caspase-9 activity was determined fluorometrically and caspase-3 colorimetrically using kits and the instruction provided by the manufacturer (BD pharmingen, USA). Caspase-3 activity was determined in both Molt-4 and HL-60 leukemia cells while caspase-9 was determined in HL-60 cells.

[4] = system: caspase-3 in Molt-4 cells; assay: Caspase-3 activation, colorimetric, Molt-4; assay type: cell-based, human; settings: 6 hr
Method: as §1

[5] = system: Ehrlich Ascitic Carcinoma solid tumor; assay: Ehrlich ascitic tumor (solid) growth inhibition in mice; assay type: in vivo, Swiss albino mice; settings: 9 days, evaluated day 13
Method: FIG. 9. Tumor growth inhibition by boswellic acid analogs. Mice treated intraperitoneally with a compound (designated “c”) of formula 1, wherein R3=COCH2CH2CH3, R1=H, R4+R5=O, have shown 22% tumor growth inhibition at a dose of about 50 mg/kg of body weight, and 41% tumor growth inhibition at a dose of 100 mg/kg of body weight.
Swiss albino mice of 6-8 weeks, weighing 18-23 g of single sex were used. For the initiation of experiment, 1×10^7 cells of EAC (Ehrlich Ascitic Carcinoma) cells were transplanted intramuscularly (i.m.) in 32 mice for the development of solid tumors. The day of tumor transplantation was assigned as day 0. Next day (day-1) animals were randomly selected and divided into four groups having equal number of mice in each group of similar body wt. Groups I and II were treated with compound of formula 1 where R3=COCH2CH2CH3, R1=H, R4+R5=O at the dose of 50 mg/kg b, wt and 100 mg/kg b. wt. intraperitoneally, respectively. Group III received 0.2 ml of 0.85% normal saline and served as normal control while group IV serving as positive control was treated with 5-FU (22 mg/kg b. wt.) intraperitoneally. The total duration of treatment was of 9 days. The evaluation of effect of treatment on tumor was done on 13th day. Ehrlich ascites cells (1×10^7) were injected intramuscularly in the right thigh muscles and on the following day animals started receiving treatment intraperitoneally in 0.5% Tween-20 daily at the indicated doses for 9 days. The growth of tumor and the efficacy of compound of formula 1, where R3=COCH2CH2CH3, R1=H, R4+R5=O in inhibiting tumor growth were evaluated on day 13 in terms of the weight of the tumor in treated and control groups count. The determination of solid tumor growth inhibition against EAT was calculated as percent tumor growth regression according to the following: […]

CCCC(=O)OC1CCC2(C)C(CCC3(C)C2C(=O)C=C2C4C(C)C(C)CCC4(C)CCC23C)C1(C)C(=O)O (stereo not shown) [R3=COCH2CH2CH3, R1=H, R4+R5=O]
effect on cell proliferation compared to other analogs [1]: marginally stronger effect compared to other analogs | reduced glutathione (GSH) content [2]: strongly depleted GSH content | caspase-3 stimulation ([3]; 50 μM): about 50% | caspase-3 activation ([3]; HL-60 cells, 6 hr): about 50% | caspase-3 activation [4]: about 50% | tumor growth inhibition ([5]; 50 mg/kg intraperitoneally): 22% | tumor growth inhibition ([5]; 100 mg/kg intraperitoneally): 41%
